Test results taken from patent US11033538B2, “Dosing regimens for the treatment of lysosomal storage diseases using pharmacological chaperones” (Amicus Therapeutics, Inc., priority 2007, dated 2021).
“Also recorded” adds a separate entry of the source. Read-outs that look alike come from different tables or passages of the source.

How the values were obtained:
α-GAL = molecular target: T1, α-GAL (Homo sapiens, UniProt P06280); assay type: in vivo
T1 construct: α-GAL activity was calculated in white blood cells (WBC); endogenous in cells; host or cells: white blood cells of healthy male volunteers
T1 sequence (P06280 32-429): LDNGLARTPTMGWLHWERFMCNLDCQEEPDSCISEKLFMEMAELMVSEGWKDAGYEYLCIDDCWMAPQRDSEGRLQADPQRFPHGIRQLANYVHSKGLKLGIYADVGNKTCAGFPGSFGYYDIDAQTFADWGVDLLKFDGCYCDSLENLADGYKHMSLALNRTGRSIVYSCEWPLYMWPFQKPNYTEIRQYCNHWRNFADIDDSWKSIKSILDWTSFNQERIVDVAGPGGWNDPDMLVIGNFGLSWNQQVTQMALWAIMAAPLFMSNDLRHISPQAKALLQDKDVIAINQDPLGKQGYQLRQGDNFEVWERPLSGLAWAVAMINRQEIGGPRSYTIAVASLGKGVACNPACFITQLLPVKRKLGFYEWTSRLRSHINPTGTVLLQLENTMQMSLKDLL
Experimental: A multiple-dose Phase I trial was conducted and consisted of a total of 16 healthy volunteers divided into two groups of eight subjects. […] All subjects in one group received placebo or 50 mg twice a day for seven days, and all subjects in the other group received placebo or 150 mg twice a day for seven days. Subjects were evaluated at the beginning of the study, on Day 7 after seven days of treatment and on Day 14 after a seven day washout period.
Blood samples (10 mL each) were collected in blood collection tubes containing EDTA and WBC extracted before dosing and at the following times thereafter: 100 hours, 150 hours, and 336 hours. Samples were treated as described above, and WBC α-GAL enzymatic activity levels were determined as described in Desnick, R. J. (ed) Enzyme therapy in genetic diseases. Vol 2. Alan R Liss, New York, pp 17-32. Statistical Analysis. Safety data including laboratory evaluations, physical exams, adverse events, ECG monitoring and vital signs assessments were summarized by treatment group and point of time of collection. Descriptive statistics (arithmetic mean, standard deviation, median, minimum and maximum) were calculated for quantitative safety data as well as for the difference to baseline. Frequency counts were compiled for classification of qualitative safety data. In addition, a shift table describing out of normal range shifts was provided for clinical laboratory results. A normal-abnormal shift table was also presented for physical exam results and ECGs.

GL-3 [1] = test: Example 5, skin GL-3 levels by light and electron microscopy; assay type: in vivo, human; conditions: 10 patients, baseline and after treatment
Experimental: Eight patients in the study received an ascending dose of 25, 100, and then 250 mg b.i.d. over 6 weeks, followed by 50 mg/day for the remainder of the study.
Skin GL-3 levels at baseline and after treatment as assessed by light and electron microscopy are available for 10 patients.

GL-3 [2] = test: Example 6, kidney biopsy GL-3 by mass spectroscopy; assay type: in vivo, human
Experimental: Four male patients received a single 150 mg Q.O.D for 12 weeks (Group B); while five male patients received 150 mg Q.O.D. for 24 weeks (Group C). Finally nine female patients were randomized to receive one of three dosages: 50, 150 or 250 mg Q.O.D for 12 weeks (Group D) (FIG. 8).
Kidney biopsies were performed at baseline, 12 weeks and 24 weeks post-treatment and evaluated for GL-3 deposits in various renal cells. GL-3 presence in the tissue was examined histologically as well as through the use of mass spectroscopy. Light microscopic analysis of kidney biopsies was performed, wherein the accumulation of GL-3 in the tissue was classified in a manner similar to the classification analysis performed in Kidney International, Vol. 62 (2002), pp. 1933-1946 which is hereby incorporated by reference. Cells were classified as containing no GL-3 accumulation (“0”); mild GL-3 accumulation (“1”); moderate GL-3 accumulation (“2”); or severe GL-3 accumulation (“3”).
Kidney GL-3 levels were assessed using histological and mass spectroscopic analysis. Kidney biopsies were examined in four of the “good” responders, two of the “moderate” responders, and two of the “non” responders. Accumulation of GL-3 was examined in three different kidney cell types: interstitial capillaries, distal tubules, and podocytes.

Fabry patients = test: Example 6, self-reported Fabry symptoms; assay type: in vivo, human
Source text: Patients self-reported changes in symptoms at the end of 12 or 24 week treatment period to evaluate, inter alia, reduction in acroparaesthesia. This may be evidence of clearance of GL-3 in the microvasculature of peripheral nerve cells.

GL-3 [3] = test: Example 12, GL-3 levels in tissues of hR301Q GLA Tg/KO mice; assay type: in vivo; conditions: 3-300 mg/kg/day, 4 weeks; p<0.05 vs. untreated
Experimental: Tissue lysates from skin, heart, and kidney were prepared and tested for GLA activity (using 4-MUG as substrate, expressed in nmol/mg protein/hr), GLA protein (using immunoblotting of […] tissue lysate with anti-human GLA antibody) and GL-3 levels (using LC-MS/MS, expressed in mg/g of tissue weight). […] Each bar represents the mean±SEM of n=7-8 mice/group. Each lane in the Western blots represents one mouse from each group.

lyso-Gb3 = test: Example 15, plasma lyso-Gb3; assay type: in vivo, human
Experimental: Plasma lyso-Gb3 and 24-hour urine GL-3 were analyzed by liquid chromatography-mass-spectroscopy using a novel stable isotope-labeled internal standard, 13C6-lyso-Gb3 (lower-limit-of-quantification: 0.200 ng/mL, 0.254 nmol/L).

[4] = test system: patients with Fabry disease; test: Example 15, safety analysis and adverse events; assay type: in vivo, human
Source text: Randomized patients receiving ≥1 dose were included in the safety analysis, which comprised vital signs, physical exams, electrocardiograms, clinical labs, and adverse events.

[5] = open-label-extension, 6/57 patients

Structure (SMILES): OC[C@H]1NC[C@H](O)[C@@H](O)[C@H]1O [DGJ, (2R,3S,4R,5S)-2-(hydroxymethyl) piperdine-3,4,5-triol]
- inhibition of WBC α-GAL enzymatic activity (α-GAL; 50 mg b.i.d. or 150 mg b.i.d.): did not inhibit WBC α-GAL enzymatic activity
- WBC α-GAL enzymatic activity (α-GAL; 50 mg b.i.d., 100 hours): 120 % pre-dose levels
- WBC α-GAL enzymatic activity (α-GAL; 50 mg b.i.d., 150 hours): 130 % pre-dose levels
- WBC α-GAL enzymatic activity (α-GAL; 50 mg b.i.d., 336 hours): 145 % pre-dose levels
- WBC α-GAL enzymatic activity (α-GAL; 150 mg b.i.d., 100 hours): 150 % pre-dose levels
- WBC α-GAL enzymatic activity (α-GAL; 150 mg b.i.d., 150 hours): 185 % pre-dose levels
- WBC α-GAL enzymatic activity (α-GAL; 150 mg b.i.d., 336 hours): 185 % pre-dose levels
- GLA levels in white blood cell lysates (α-GAL; 50 and 150 mg twice daily for 7 days): increased GLA levels
- increase in levels of α-GAL in white blood cells (α-GAL; highest dose level (150 mg twice a day for seven days), healthy volunteers): ~2 fold
- persistence of the α-GAL increase (α-GAL; highest dose level, after the last dose): maintained for at least seven days after the last dose
- skin GL-3 levels (GL-3 [1]): Seven patients had skin GL-3 levels that were normal or near normal both before and after treatment; also recorded: Results for the three other patients were difficult to interpret
- expected good responders with kidney GL-3 decrease of greater than 10% (GL-3 [2]; female): two of the five
- mean decrease in kidney GL-3 levels (mass spectoanalysis) (GL-3 [2]; female expected good responders): 20%
- good responders with kidney GL-3 decrease of greater than 10% (GL-3 [2]; male good responders): 3
- mean decrease in kidney GL-3 levels (mass spectroanalysis) (GL-3 [2]; male good responders): 28%
- self-reported symptoms (Fabry patients; four female expected good responders): decreases in pain
- self-reported symptoms (Fabry patients; seven male good responders): improved gastrointestinal function and a decrease in pain
- GL-3 levels in skin, heart, kidney (GL-3 [3]): significant reduction in GL-3 levels
- Mean plasma lyso-Gb3 (lyso-Gb3; after 6 months of DGJ, baseline 118±48, N=8 males, p=0.0004): 75 ± 42 nM
- plasma lyso-Gb3 levels (lyso-Gb3; six months of DGJ, mITT-suitable, p=0.0033): significant reduction in plasma lyso-Gb3 levels compared to placebo
- plasma lyso-Gb3 (lyso-Gb3; switching from placebo to DGJ between 6 and 12 months, p<0.0001): significant reduction in plasma lyso-Gb3
- patients with serious adverse events ([4]; Stage 1, DGJ arm): 2 patients
- nasopharyngitis frequency ([4]; Stage 1, DGJ, 6/34 patients): 18%
- headache frequency ([4]; Stage 1, DGJ, 12/34 patients): 35%
- procedural pain frequency ([4]; Stage 2, 7/63 patients, related to kidney biopsies): 11%
- headache frequency ([4]; Stage 2, 9/63 patients): 14%
- serious adverse events possibly related to DGJ ([4]; fatigue and paresthesia, same patient, months 12-24, resolved): Two serious adverse events were assessed as possibly related to DGJ
- deaths ([4]; in vivo): No deaths were reported
- discontinuation due to adverse events ([4]; in vivo): No adverse events led to DGJ discontinuation
- severity of adverse events ([4]; in vivo): Most adverse events were mild or moderate in severity
- vital sign, physical findings, laboratory and ECG parameters ([4]; in vivo): did not reveal any clinically relevant effect of DGJ
- bronchitis frequency [4, 5]: 11%
- headache frequency [4, 5]: 11%
- proteinuria frequency ([4]; open-label-extension, 9/57 patients): 16%
- patients whose 24-hour urine protein remained stable during DGJ treatment ([4]; patients with baseline proteinuria <300 mg/24-h): 23/28
